Values quoted from earlier work in patent publication US8101779B2, “Enantioselective synthesis of (+) and (–)-2-[1-(2,6-dichlorophenoxy)-ethyl]-1,3-diazacyclopent-2-ene” (University of Kentucky Research Foundation, priority 2008, dated 2012).

Compound: CC(Oc1c(Cl)cccc1Cl)C1=NCCN1 (single isomer, unassigned; (+)) [(+)-lofexidine, (+) 2-[1-(2,6-dichlorophenoxy)-ethyl]1,3-diazacyclopent-2-ene]
- dose at which the effect of lowering mean arterial blood pressure is apparent (effect apparent at doses as low as): ≤ 0.561 µg/kg

Compound: CC(Oc1c(Cl)cccc1Cl)C1=NCCN1 (single isomer, unassigned; (-)) [(−)-lofexidine, (−)-2-[1-(2,6-dichlorophenoxy)-ethyl]-1,3-diazacyclopent-2-ene]
- dose at which lowering of mean arterial blood pressure is not seen (effect not seen even at doses as high as): > 10 µg/kg
